{"source": "patent US20100092562A1", "about": "“SUSTAINED-RELEASE DRUG DELIVERY COMPOSITIONS AND METHODS” (priority 2002, published 2010)", "key": {"[1]": {"details": "cited from earlier work"}, "[2]": {"test": "Release profile of base vs salt forms of drugs in liquid controlled release compositions, USP Apparatus 2", "format": "physicochemical", "details": "liquid sustained release compositions, 65% W/W sucrose; stored 3 weeks at room temperature"}, "[3]": {"test": "Effect of sucrose concentration in dispersion medium on albuterol release, USP Apparatus 2", "format": "physicochemical", "details": "alginate beads, 20% coating; stored 1 week at room temperature", "protocol": "The experiment was carried out with 16 mg of albuterol bound to the alginic acid resin, with 20% coating, and 40%, 50%, 60% or 65% W/W of sucrose in the dispersion medium. First, the alginate beads were loaded with the drug albuterol, where 5% of albuterol and 5% of alginic acid were used. Albuterol and alginic acid powders were placed in a beaker, 100 ml of water was added, and the mixture was stirred until a homogenous gel was formed. Then, 70% microcrystalline cellulose and 20% lactose were placed into a bowl of a low shear mixer and pre-blended with a spatula. Then, the albuterol-alginate gel was incrementally added to the microcrystalline cellulose and lactose blend and mixed to produce a wet mass. Additional 50 ml of water was added to the beaker to wash down its sides and added to the wet mass during its blending, and the resulting wet mass was transferred into a polyethylene bag. Then, the resulting wet mass material was extruded using a dome screen attachment with 0.8 mm screen size at 55 rpm, with the wet mass being gradually added into the extruder. Subsequently, the extrudate was spheronized at 750 rpm for approximately 30 sec, and then dried overnight in a convection oven at 45° C. The beads of appropriate size (material that passed through 16 mesh screens and retained on 20 mesh screens) were selected. […]"}, "[4]": {"details": "sodium alginate 0.877 g/L, 25° C.", "protocol": "The studies were performed with a two compartment plexiglass dialysis cell (Hollenbeck laboratory) and having a cellulose membrane (molecular weight cutoff of 6000 Daltons) Bel-Art Products (Pequannock, N.J.) placed between the two cell compartments. […] The dialysis cell was shaken at 80 RPM in a thermostatic water bath at 25° C. until equilibrium was reached (30 h). The solution was removed from the drug compartment and the concentrations of free drug and polymer-bound drug measured by high performance liquid chromatography (“HPLC”)."}, "[5]": {"details": "total drug concentration 4.97 (M × 10^4)"}, "[6]": {"details": "total drug concentration 5.47 (M × 10^4)"}, "[7]": {"details": "total drug concentration 5.96 (M × 10^4)"}, "[8]": {"details": "total drug concentration 6.96 (M × 10^4)"}, "[9]": {"details": "total drug concentration 7.95 (M × 10^4)"}, "[10]": {"details": "total drug concentration 8.95 (M × 10^4)"}, "[11]": {"details": "total drug concentration 9.94 (M × 10^4)"}, "[12]": {"details": "total drug concentration 14.91 (M × 10^4)"}, "[13]": {"details": "total drug concentration 19.88 (M × 10^4)"}, "[14]": {"details": "total drug concentration 24.86 (M × 10^4)"}, "[15]": {"details": "total drug concentration 30.40 (M × 10^4)"}, "[16]": {"details": "total drug concentration 41.20 (M × 10^4)"}, "[17]": {"details": "total drug concentration 50.70 (M × 10^4)"}, "[18]": {"details": "single IR oral dose of 10 mg HC, 5 male human subjects"}}, "note": "Structures can show the parent of a compound that is named as a salt. Where two headings read alike, the source gives them in different places."}
{"molecule": "CN[C@@H](C)[C@@H](O)c1ccccc1", "note": "(relative stereo) [pseudoephedrine, benzenemethanol, -[1-(methylamino)ethyl]-, [S—(R*,R*)]-, hydrochloride]", "values": [{"measurement": "half-life", "setting": "[1]; affected by urinary pH", "result": "9 to 16", "unit": "h"}, {"measurement": "dose excreted unchanged in the urine within 24 hours of dosing", "setting": "[1]; in vivo", "result": "up to 90%"}, {"measurement": "Tmax following administration", "setting": "[1]; previously published studies", "result": "1.5 to 2.4", "unit": "h"}, {"measurement": "rate of release of salt forms vs base forms", "setting": "[2]", "result": "comparable"}]}
{"molecule": "CC(C)(C)NCC(O)c1ccc(O)c(CO)c1", "note": "(stereo not shown) [albuterol]", "values": [{"measurement": "release from beads suspended in 50%, 60% and 65% W/W of sucrose vs 40% W/W of sucrose", "setting": "[3]", "result": "slower"}]}
{"molecule": "CC(C)NCC(O)COc1cccc2ccccc12.Cl", "note": "(stereo not shown) [propranolol, propranolol hydrochloride]", "values": [{"measurement": "(l/g), r/(Df)", "setting": "[4]; [5]", "result": 4.88, "unit": "L/g"}, {"measurement": "Amount bound per gram of polymer", "setting": "[4]; [5]", "result": 4.59, "unit": "M × 10^4"}, {"measurement": "Bound drug concentration", "setting": "[4]; [5]", "result": 4.03, "unit": "M × 10^4"}, {"measurement": "Free drug concentration", "setting": "[4]; [5]", "result": 0.94, "unit": "M × 10^4"}, {"measurement": "(l/g), r/(Df)", "setting": "[4]; [6]", "result": 3.97, "unit": "L/g"}, {"measurement": "Amount bound per gram of polymer", "setting": "[4]; [6]", "result": 4.84, "unit": "M × 10^4"}, {"measurement": "Bound drug concentration", "setting": "[4]; [6]", "result": 4.25, "unit": "M × 10^4"}, {"measurement": "Free drug concentration", "setting": "[4]; [6]", "result": 1.22, "unit": "M × 10^4"}, {"measurement": "(l/g), r/(Df)", "setting": "[4]; [7]", "result": 3.60, "unit": "L/g"}, {"measurement": "Amount bound per gram of polymer", "setting": "[4]; [7]", "result": 5.16, "unit": "M × 10^4"}, {"measurement": "Bound drug concentration", "setting": "[4]; [7]", "result": 4.53, "unit": "M × 10^4"}, {"measurement": "Free drug concentration", "setting": "[4]; [7]", "result": 1.43, "unit": "M × 10^4"}, {"measurement": "(l/g), r/(Df)", "setting": "[4]; [8]", "result": 3.21, "unit": "L/g"}, {"measurement": "Amount bound per gram of polymer", "setting": "[4]; [8]", "result": 5.86, "unit": "M × 10^4"}, {"measurement": "Bound drug concentration", "setting": "[4]; [8]", "result": 5.14, "unit": "M × 10^4"}, {"measurement": "Free drug concentration", "setting": "[4]; [8]", "result": 1.82, "unit": "M × 10^4"}, {"measurement": "(l/g), r/(Df)", "setting": "[4]; [9]", "result": 2.49, "unit": "L/g"}, {"measurement": "Amount bound per gram of polymer", "setting": "[4]; [9]", "result": 6.23, "unit": "M × 10^4"}, {"measurement": "Bound drug concentration", "setting": "[4]; [9]", "result": 5.46, "unit": "M × 10^4"}, {"measurement": "Free drug concentration", "setting": "[4]; [9]", "result": 2.49, "unit": "M × 10^4"}, {"measurement": "(l/g), r/(Df)", "setting": "[4]; [10]", "result": 1.71, "unit": "L/g"}, {"measurement": "Amount bound per gram of polymer", "setting": "[4]; [10]", "result": 6.12, "unit": "M × 10^4"}, {"measurement": "Bound drug concentration", "setting": "[4]; [10]", "result": 5.37, "unit": "M × 10^4"}, {"measurement": "Free drug concentration", "setting": "[4]; [10]", "result": 3.57, "unit": "M × 10^4"}, {"measurement": "(l/g), r/(Df)", "setting": "[4]; [11]", "result": 1.62, "unit": "L/g"}, {"measurement": "Amount bound per gram of polymer", "setting": "[4]; [11]", "result": 6.66, "unit": "M × 10^4"}, {"measurement": "Bound drug concentration", "setting": "[4]; [11]", "result": 5.83, "unit": "M × 10^4"}, {"measurement": "Free drug concentration", "setting": "[4]; [11]", "result": 4.10, "unit": "M × 10^4"}, {"measurement": "(l/g), r/(Df)", "setting": "[4]; [12]", "result": 1.17, "unit": "L/g"}, {"measurement": "Amount bound per gram of polymer", "setting": "[4]; [12]", "result": 8.61, "unit": "M × 10^4"}, {"measurement": "Free drug concentration", "setting": "[4]; [12]", "result": 7.36, "unit": "M × 10^4"}, {"measurement": "(l/g), r/(Df)", "setting": "[4]; [13]", "result": 0.87, "unit": "L/g"}, {"measurement": "Amount bound per gram of polymer", "setting": "[4]; [13]", "result": 9.81, "unit": "M × 10^4"}, {"measurement": "Bound drug concentration", "setting": "[4]; [13]", "result": 8.60, "unit": "M × 10^4"}, {"measurement": "Free drug concentration", "setting": "[4]; [13]", "result": 11.28, "unit": "M × 10^4"}, {"measurement": "(l/g), r/(Df)", "setting": "[4]; [14]", "result": 0.60, "unit": "L/g"}, {"measurement": "Amount bound per gram of polymer", "setting": "[4]; [14]", "result": 10.73, "unit": "M × 10^4"}, {"measurement": "Bound drug concentration", "setting": "[4]; [14]", "result": 9.41, "unit": "M × 10^4"}, {"measurement": "Free drug concentration", "setting": "[4]; [14]", "result": 15.45, "unit": "M × 10^4"}, {"measurement": "(l/g), r/(Df)", "setting": "[4]; [15]", "result": 0.57, "unit": "L/g"}, {"measurement": "Amount bound per gram of polymer", "setting": "[4]; [15]", "result": 11.49, "unit": "M × 10^4"}, {"measurement": "Bound drug concentration", "setting": "[4]; [15]", "result": 10.08, "unit": "M × 10^4"}, {"measurement": "Free drug concentration", "setting": "[4]; [15]", "result": 20.32, "unit": "M × 10^4"}, {"measurement": "(l/g), r/(Df)", "setting": "[4]; [16]", "result": 0.41, "unit": "L/g"}, {"measurement": "Amount bound per gram of polymer", "setting": "[4]; [16]", "result": 12.37, "unit": "M × 10^4"}, {"measurement": "Bound drug concentration", "setting": "[4]; [16]", "result": 10.84, "unit": "M × 10^4"}, {"measurement": "Free drug concentration", "setting": "[4]; [16]", "result": 30.35, "unit": "M × 10^4"}, {"measurement": "(l/g), r/(Df)", "setting": "[4]; [17]", "result": 0.33, "unit": "L/g"}, {"measurement": "Amount bound per gram of polymer", "setting": "[4]; [17]", "result": 12.93, "unit": "M × 10^4"}, {"measurement": "Bound drug concentration", "setting": "[4]; [17]", "result": 11.34, "unit": "M × 10^4"}, {"measurement": "Free drug concentration", "setting": "[4]; [17]", "result": 39.36, "unit": "M × 10^4"}]}
{"molecule": "COc1ccc2c3c1O[C@H]1C(=O)CC[C@H]4[C@@H](C2)N(C)CC[C@]314", "note": "(relative stereo) [hydrocodone, morphinan-6-one, 4,5-epoxy-3-methoxy-17-methyl-,(5)-, [R—(R*,R*)]-2,3-dihydroxybutane-dioate (1:1), hydrate (2:5)]", "values": [{"measurement": "elimination half-life of the parent-compound", "setting": "[1]; in vivo", "result": "3.8 to 4.5", "unit": "h"}, {"measurement": "Tmax", "setting": "[1]; [18]", "result": "approximately 1.3±0.3 hours"}, {"measurement": "mean peak serum concentration", "setting": "[1]; [18]", "result": "23.6 ± 5.2", "unit": "ng/mL"}, {"measurement": "total excretion occurring in the first 24 hours", "setting": "[1]; single oral dose", "result": "About 70%"}]}
{"molecule": "CN(C)CCC(c1ccc(Cl)cc1)c1ccccn1", "note": "(stereo not shown) [chlorpheniramine, 2-pyridinepropanamine, -(4-chlorophenyl)-N,N-dimethyl-, (Z)-2-butenedioate (1:1)]", "values": [{"measurement": "excreted in the feces", "setting": "[1]; in vivo", "result": "Less than 1%"}, {"measurement": "excreted in the urine (metabolism to monodesmethyl and didesmethyl compounds)", "setting": "[1]; in vivo", "result": "up to 26%"}, {"measurement": "renal elimination, share of total excretion", "setting": "[1]; in vivo", "result": "approximately 50%"}, {"measurement": "rate of release of salt forms vs base forms", "setting": "[2]", "result": "comparable"}]}
